Molecules are shown by their SMILES.

In the test the target is T1, Androgen Receptor (AR) (Homo sapiens, UniProt P10275, T878A).
T1 construct: cell based immuno-fluorescence assay using the LNCaP prostate epithelial cell line; endogenous in cells; host or cells: LNCaP clone FGC (ATCC CRL-1740)
T1 sequence (P10275 1-920 T878A): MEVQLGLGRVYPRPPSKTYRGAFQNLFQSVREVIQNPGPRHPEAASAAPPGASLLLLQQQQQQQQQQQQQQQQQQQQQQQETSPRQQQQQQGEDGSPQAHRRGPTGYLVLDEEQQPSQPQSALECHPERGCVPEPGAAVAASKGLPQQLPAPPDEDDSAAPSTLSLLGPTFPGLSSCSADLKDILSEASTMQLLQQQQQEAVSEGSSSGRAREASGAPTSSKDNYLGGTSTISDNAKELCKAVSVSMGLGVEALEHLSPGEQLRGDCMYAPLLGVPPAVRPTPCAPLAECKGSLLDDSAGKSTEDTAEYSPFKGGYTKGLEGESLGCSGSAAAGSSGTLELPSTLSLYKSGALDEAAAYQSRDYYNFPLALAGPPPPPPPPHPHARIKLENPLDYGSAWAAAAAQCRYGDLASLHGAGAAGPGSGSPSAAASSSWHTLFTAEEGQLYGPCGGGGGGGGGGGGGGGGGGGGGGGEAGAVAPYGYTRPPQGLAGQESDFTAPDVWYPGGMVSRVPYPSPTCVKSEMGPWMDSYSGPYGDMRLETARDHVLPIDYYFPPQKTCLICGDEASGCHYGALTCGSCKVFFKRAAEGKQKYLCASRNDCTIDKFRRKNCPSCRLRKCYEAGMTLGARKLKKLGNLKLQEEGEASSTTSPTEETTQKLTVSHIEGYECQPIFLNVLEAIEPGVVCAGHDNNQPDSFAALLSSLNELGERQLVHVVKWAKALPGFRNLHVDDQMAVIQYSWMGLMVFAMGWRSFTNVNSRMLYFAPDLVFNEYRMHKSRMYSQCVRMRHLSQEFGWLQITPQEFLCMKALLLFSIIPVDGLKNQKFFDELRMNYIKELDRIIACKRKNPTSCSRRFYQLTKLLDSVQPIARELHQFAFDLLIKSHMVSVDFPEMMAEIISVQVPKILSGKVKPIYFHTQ
The test is described as follows: LNCaP Androgen Receptor Down-regulation Cell Assay (immunofluorescence end point). The class given is cell-based. As to conditions: LNCaP prostate carcinoma cells, compound incubation 20-22 hours, 50% reduction of the AR signal; read-out: Androgen Receptor Down-regulation Assay (a) IC50/μM. An outline of the steps:
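AR loss reported as IC50 from curve fits of fluorescence dose-response data, with AR immunostained and read by laser-scanning cytometry. Compound exposure was 20-22 h at 37° C in LNCaP cells grown in 5% charcoal-stripped FBS and plated overnight beforehand.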
Consider `FC(F)(F)c1nnc2ccc(N3CCN(Cc4ccc5c(c4)OCO5)CC3)nn12` [Example 85, 6-[4-(1,3-benzodioxol-5-ylmethyl)piperazin-1-yl]-3-(trifluoromethyl)-[1,2,4]triazolo[4,3-b]pyridazine], for which the DC50 was found to be 1.6 µM.

Consider `Cn1cccc1CN1CCN(c2ccc3nnc(C(F)(F)F)n3n2)CC1` [Example 87, 6-[4-[(1-methylpyrrol-2-yl)methyl]piperazin-1-yl]-3-(trifluoromethyl)-[1,2,4]triazolo[4,3-b]pyridazine], for which the DC50 is 5.2 µM. For `FC(F)(F)c1nnc2ccc(N3CCN(Cc4ccc5c(c4)OCCO5)CC3)nn12` [Example 88, 6-[4-(2,3-dihydro-1,4-benzodioxin-6-ylmethyl)piperazin-1-yl]-3-(trifluoromethyl)-[1,2,4]triazolo[4,3-b]pyridazine], the DC50 came to 1.5 µM.

As to `Cn1cncc1CN1CCN(c2ccc3nnc(C(F)(F)F)n3n2)CC1` [Example 89, 6-[4-[(3-methylimidazol-4-yl)methyl]piperazin-1-yl]-3-(trifluoromethyl)-[1,2,4]triazolo[4,3-b]pyridazine], the DC50 came to 23 µM. Regarding `FC(F)(F)c1nnc2ccc(N3CCN(Cc4ccoc4)CC3)nn12` [Example 90, 6-[4-(furan-3-ylmethyl)piperazin-1-yl]-3-(trifluoromethyl)-[1,2,4]triazolo[4,3-b]pyridazine], the DC50 came out at 3.2 µM. For the compound `FC(F)(F)c1nnc2ccc(N3CCN(Cc4c[nH]c5ccccc45)CC3)nn12` [Example 94, 6-[4-(1H-indol-3-ylmethyl)piperazin-1-yl]-3-(trifluoromethyl)-[1,2,4]triazolo[4,3-b]pyridazine], the DC50 was found to be 0.93 µM. On to `FC(F)(F)c1cccc(CN2CCN(c3ccc4nnc(C(F)(F)F)n4n3)CC2)c1` [Example 95, 3-(trifluoromethyl)-6-[4-[[3-(trifluoromethyl)phenyl]methyl]piperazin-1-yl]-[1,2,4]triazolo[4,3-b]pyridazine], for which the DC50 worked out at 0.67 µM. Turning to `Fc1cccc(CN2CCN(c3ccc4nnc(C(F)(F)F)n4n3)CC2)c1` [Example 96, 6-[4-[(3-fluorophenyl)methyl]piperazin-1-yl]-3-(trifluoromethyl)-[1,2,4]triazolo[4,3-b]pyridazine], the DC50 is greater than 1.3 µM. Take `FC(F)(F)c1nnc2ccc(N3CCN(Cc4cccc(Cl)c4)CC3)nn12` [Example 97, 6-[4-[(3-chlorophenyl)methyl]piperazin-1-yl]-3-(trifluoromethyl)-[1,2,4]triazolo[4,3-b]pyridazine]: the DC50 amounted to 0.36 µM. `Cc1cc(CN2CCN(c3ccc4nnc(C(F)(F)F)n4n3)CC2)oc1C` [Example 98, 6-[4-[(4,5-dimethylfuran-2-yl)methyl]piperazin-1-yl]-3-(trifluoromethyl)-[1,2,4]triazolo[4,3-b]pyridazine]: the DC50 came to 2.3 µM. The result for `FC(F)(F)c1nnc2ccc(N3CCN(CC4CCCCC4)CC3)nn12` [Example 99, 6-[4-(cyclohexylmethyl)piperazin-1-yl]-3-(trifluoromethyl)-[1,2,4]triazolo[4,3-b]pyridazine] reads 2.9 µM. In the case of `FC1(F)Oc2ccc(CN3CCN(c4ccc5nnc(C(F)(F)F)n5n4)CC3)cc2O1` [Example 100, 6-[4-[(2,2-difluoro-1,3-benzodioxol-5-yl)methyl]piperazin-1-yl]-3-(trifluoromethyl)-[1,2,4]triazolo[4,3-b]pyridazine], the DC50 amounted to 1.8 µM. Next, `FC(F)(F)c1nnc2ccc(N3CCN(Cc4cc5ccccc5[nH]4)CC3)nn12` [Example 101, 6-[4-(1H-indol-2-ylmethyl)piperazin-1-yl]-3-(trifluoromethyl)-[1,2,4]triazolo[4,3-b]pyridazine]: 1.7 µM. Consider `FC(F)(F)c1nnc2ccc(N3CCN(Cc4cccc5c4OCO5)CC3)nn12` [Example 102, 6-[4-(1,3-benzodioxol-4-ylmethyl)piperazin-1-yl]-3-(trifluoromethyl)-[1,2,4]triazolo[4,3-b]pyridazine], for which the DC50 turned out to be 2.9 µM.

For `FC(F)(F)c1nnc2ccc(N3CCN(Cc4cccc5nccnc45)CC3)nn12` [Example 103, 5-[[4-[3-(trifluoromethyl)[1,2,4]triazolo[4,3-b]pyridazin-6-yl]piperazin-1-yl]methyl]quinoxaline], the DC50 was 6.2 µM. Turning to `FC(F)(F)c1nnc2ccc(N3CCN(Cc4cc[nH]c4)CC3)nn12` [Example 104, 6-[4-(1H-pyrrol-3-ylmethyl)piperazin-1-yl]-3-(trifluoromethyl)-[1,2,4]triazolo[4,3-b]pyridazine], the DC50 is 9.5 µM. On to `Cc1ccc(Oc2cccc(CN3CCN(c4ccc5nnc(C(F)(F)F)n5n4)CC3)c2)cc1` [Example 105, 6-[4-[[3-(4-methylphenoxy)phenyl]methyl]piperazin-1-yl]-3-(trifluoromethyl)-[1,2,4]triazolo[4,3-b]pyridazine], for which the DC50 turned out to be 3.2 µM. The result for `CN(C)c1ccc(CN2CCN(c3ccc4nnc(C(F)(F)F)n4n3)CC2)cc1` [Example 106, N,N-dimethyl-4-[[4-[3-(trifluoromethyl)-[1,2,4]triazolo[4,3-b]pyridazin-6-yl]piperazin-1-yl]methyl]aniline] reads 4.4 µM.

`CC(=O)Nc1ccc(CN2CCN(c3ccc4nnc(C(F)(F)F)n4n3)CC2)cc1` [Example 107, N-[4-[[4-[3-(trifluoromethyl)-[1,2,4]triazolo[4,3-b]pyridazin-6-yl]piperazin-1-yl]methyl]phenyl]acetamide]: the DC50 is 7.2 µM. The result for `CCOc1ccc(CN2CCN(c3ccc4nnc(C(F)(F)F)n4n3)CC2)cc1` [Example 108, 6-[4-[(4-ethoxyphenyl)methyl]piperazin-1-yl]-3-(trifluoromethyl)-[1,2,4]triazolo[4,3-b]pyridazine] reads 2.3 µM; that for `CCCCOc1ccc(CN2CCN(c3ccc4nnc(C(F)(F)F)n4n3)CC2)cc1` [Example 109, 6-[4-[(4-butoxyphenyl)methyl]piperazin-1-yl]-3-(trifluoromethyl)-[1,2,4]triazolo[4,3-b]pyridazine], 7.2 µM. With `O=[N+]([O-])c1ccc(CN2CCN(c3ccc4nnc(C(F)(F)F)n4n3)CC2)cc1` [Example 111, 6-[4-[(4-nitrophenyl)methyl]piperazin-1-yl]-3-(trifluoromethyl)-[1,2,4]triazolo[4,3-b]pyridazine], the DC50 came to 0.77 µM. Next, `CN(C)CCCOc1ccc(CN2CCN(c3ccc4nnc(C(F)(F)F)n4n3)CC2)cc1` [Example 112, N,N-dimethyl-3-[4-[[4-[3-(trifluoromethyl)-[1,2,4]triazolo[4,3-b]pyridazin-6-yl]piperazin-1-yl]methyl]phenoxy]propan-1-amine]: 4.7 µM; `FC(F)(F)c1nnc2ccc(N3CCN(Cc4ccc(N5CCCC5)cc4)CC3)nn12` [Example 113, 6-[4-[(4-pyrrolidin-1-ylphenyl)methyl]piperazin-1-yl]-3-(trifluoromethyl)-[1,2,4]triazolo[4,3-b]pyridazine]: 7.1 µM. `CC(C)(C)Oc1ccc(CN2CCN(c3ccc4nnc(C(F)(F)F)n4n3)CC2)cc1` [Example 114, 6-[4-[[4-[(2-methylpropan-2-yl)oxy]phenyl]methyl]piperazin-1-yl]-3-(trifluoromethyl)-[1,2,4]triazolo[4,3-b]pyridazine]: the DC50 was determined as 6.5 µM. In the case of `CC(C)Oc1ccc(CN2CCN(c3ccc4nnc(C(F)(F)F)n4n3)CC2)cc1` [Example 115, 6-[4-[(4-propan-2-yloxyphenyl)methyl]piperazin-1-yl]-3-(trifluoromethyl)-[1,2,4]triazolo[4,3-b]pyridazine], the DC50 turned out to be 2.5 µM. The result for `FC(F)(F)Sc1cccc(CN2CCN(c3ccc4nnc(C(F)(F)F)n4n3)CC2)c1` [Example 116, 3-(trifluoromethyl)-6-[4-[[3-(trifluoromethylsulfanyl)phenyl]methyl]piperazin-1-yl]-[1,2,4]triazolo[4,3-b]pyridazine] reads 1.1 µM; that for `FC(F)(F)c1nnc2ccc(N3CCN(Cc4ccc(-c5cccnc5)cc4)CC3)nn12` [Example 117, 6-[4-[(4-pyridin-3-ylphenyl)methyl]piperazin-1-yl]-3-(trifluoromethyl)-[1,2,4]triazolo[4,3-b]pyridazine], 1.7 µM; that for `FC(F)(F)c1nnc2ccc(N3CCN(Cc4cccc(Br)c4)CC3)nn12` [Example 118, 6-[4-[(3-bromophenyl)methyl]piperazin-1-yl]-3-(trifluoromethyl)-[1,2,4]triazolo[4,3-b]pyridazine], 0.3 µM.

The values are drawn from patent US8003649B2 (AstraZeneca AB, priority 2007, dated 2011).
